Source: ChEMBL document CHEMBL4350964, “Discovery of the theobromine derivative MQS-14 that induces death of MGC-803 cells mainly through ROS-mediated mechanisms” (Eur J Med Chem, 2019)

Legend:
MGC-803 [1] = experiment: Cytotoxicity against human MGC803 cells assessed as growth inhibition at 20 uM after 48 hrs by MTT assay relative to control; format: functional; conditions: MGC-803, 48 h
GES1 = experiment: Cytotoxicity against human GES-1 cells assessed as reduction in cell viability by MTT assay; format: cell-based
[2] = Selectivity ratio of IC50 for human GES-1 cells to IC50 for human MGC803 cells; format: toxicity; conditions: GES-1 cells and MGC803 cells, read-out: Ratio IC50
SGC-7901 = experiment: Cytotoxicity against human SGC7901 cells assessed as reduction in cell viability by MTT assay; format: functional, cell-based
HGC-27 = experiment: Cytotoxicity against human HGC27 cells assessed as reduction in cell viability by MTT assay; format: functional, cell-based
MGC-803 [3] = experiment: Cytotoxicity against human MGC803 cells assessed as reduction in cell viability by MTT assay; format: functional, cell-based

For `Cn1cnc2c1c(=O)n(CC(=O)N1CCSCC1)c(=O)n2C`, the inhibition at 20 µM (MGC-803 [1]) was 5.6%.
Work on `CCCn1c(SCc2cccc(C)c2)nc2c1c(=O)[nH]c(=O)n2C` yielded an IC50 (GES1) of 16 µM, a selectivity ratio [2] of 2 to 3 and an IC50 (SGC-7901) of 16 µM. For the same compound, the inhibition at 20 µM (MGC-803 [1]) was 84.1%, the IC50 (HGC-27) was 10 µM and the IC50 (MGC-803 [3]) was 7.2 µM.
`Cn1cnc2c1c(=O)n(CC(=O)N1CCC(F)(F)CC1)c(=O)n2C` showed an inhibition at 20 µM (MGC-803 [1]) of 11.3%.
With `CN1CCN(C(=O)Cn2c(=O)c3c(ncn3C)n(C)c2=O)CC1` the inhibition at 20 µM (MGC-803 [1]) was 8.6%.
For `C=CCSc1nc2c(c(=O)[nH]c(=O)n2C)n1CCC`, the inhibition at 20 µM (MGC-803 [1]) was 5.5%.
Work on `CCCn1c(SCc2ccc(F)cc2)nc2c1c(=O)[nH]c(=O)n2C` yielded an IC50 (GES1) of 14 µM, a selectivity ratio [2] of 2 to 3 and an IC50 (SGC-7901) of 15 µM. For the same compound, the inhibition at 20 µM (MGC-803 [1]) was 86.5%, the IC50 (HGC-27) was 9.7 µM and the IC50 (MGC-803 [3]) was 5.4 µM.
Compound `CCCn1c(SCc2ccc([N+](=O)[O-])cc2)nc2c1c(=O)[nH]c(=O)n2C` has an inhibition at 20 µM (MGC-803 [1]) of 19.8%.
`Cn1cnc2c1c(=O)n(CC(=O)N1CCOCC1)c(=O)n2C` gave an inhibition at 20 µM (MGC-803 [1]) of 19.9%.
For `Cn1cnc2c1c(=O)n(CC(=O)N1CCN(c3ccccc3)CC1)c(=O)n2C`, the inhibition at 20 µM (MGC-803 [1]) was 4.6%.
`CCCn1c(SCC(=O)Nc2ccc(C)cc2)nc2c1c(=O)[nH]c(=O)n2C` gave an inhibition at 20 µM (MGC-803 [1]) of 42.2%.
Compound `Cc1ccc(S(=O)(=O)N2CCN(C(=O)Cn3c(=O)c4c(ncn4C)n(C)c3=O)CC2)cc1` has an inhibition at 20 µM (MGC-803 [1]) of 20.1%.
With `Cn1cnc2c1c(=O)n(CC(=O)N1CCN(Cc3ccc(Cl)cc3)CC1)c(=O)n2C` the inhibition at 20 µM (MGC-803 [1]) was 22.5%.
